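A five-concentration, 48-hour dose response in 96-well plates underlies each endpoint, interpolated linearly between surrounding concentrations. Abbreviation: GI50, concentration required for 50% inhibition of growth.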 Active and inactive are the calls of the source. No stated cut-off is given here; in the data, active = GI50 up to about 1.1 µM and inactive = higher.

Common to all, as to test: growth of human tumour cells (NCI), 48 h
Test [1] deals with A549.
Test [2] deals with NCI/ADR-RES.
In test [3] the test system is A498.
The test system of test [4] is HL-60.
Test [5] concerns OVCAR-8.
Test [6] deals with SN12C.
The test system of test [7] is NCI-H23.
For test [8], the system named is HCC 2998.
The test system of test [9] is CCRF-CEM.
Test [10] concerns HCT-15.
For test [11], the system named is HOP-62.
In test [12] the test system is Hs-578T.
Test [13] concerns U-251.
The subject of test [14] is NCI-H226.
Test [15] deals with OVCAR-4.
Test [16] relates to SNB-75.
Test [17] has as its system RXF 393.
The subject of test [18] is SK-OV-3.
The subject of test [19] is 786-0.

Take `CCCCSC1=N/C(=C\c2ccco2)C(=O)N1`: the GI50 in test [1] is 43.6 µM (inactive); in test [2], 31.9 µM (inactive); in test [3], 24.2 µM (inactive); in [4], 18.2 µM (inactive); in [5], 44.1 µM (inactive); in test [6] it was 99.1 µM (inactive). The GI50 was 36.3 µM (inactive) in test [7]; 30 µM (inactive) in test [8]; 24.2 µM (inactive) in test [9]; 34.6 µM in test [10]; > 100 µM (inactive) in test [11]; 29.9 µM (inactive) in [12]. Besides, the GI50 is 74.6 µM (inactive) in test [13]; 51.5 µM (inactive) in test [14]; 60.1 µM (inactive) in test [15]; 25.9 µM (inactive) in [16]; 12.1 µM (inactive) in test [17]; > 100 µM (inactive) in test [18]. Further, the GI50 in test [19] is 87.3 µM (inactive).
As to `O=C(c1cc2c(c3ccccc13)NCCN=C2C(F)(F)F)C(F)(F)F`, the GI50 is 27 µM (inactive) in [2]; 17.1 µM (inactive) in test [3]; 16.3 µM (inactive) in test [4]; 34.5 µM (inactive) in test [5]; 40.6 µM (inactive) in [7]; 17.5 µM (inactive) in test [8]. For the same compound, the GI50 in test [9] is 17 µM (inactive); in [10], 45.3 µM; in [11], 19.7 µM (inactive); in test [12] it was 14.3 µM (inactive); in test [13], 13.5 µM (inactive); in test [14], 18.5 µM (inactive). Moreover, the GI50 was 38.7 µM (inactive) in test [15]; 21.6 µM (inactive) in test [16]; 23.3 µM (inactive) in [17]; 37.4 µM (inactive) in [18]; 20.8 µM (inactive) in test [19].
As for `CN(CCCNC(=O)c1nn(-c2ccccc2)c2c1Cc1ccccc1-2)CCCNC(=O)c1nn(-c2ccccc2)c2c1Cc1ccccc1-2`, the GI50 in test [1] is 1.66 µM (inactive); in [2] it was 1.63 µM (inactive); in test [3], 1.69 µM (inactive); in [4], 0.603 µM (active); in [5] it was 1.73 µM (inactive); in test [6], 1.76 µM (inactive). In addition, the GI50 in test [7] was 1.57 µM (inactive); in test [8], 1.42 µM (inactive); in [9], 1 µM (active); in test [10], 1.64 µM; in [11], 1.58 µM (inactive); in [12], 1.25 µM (inactive). For the same compound, the GI50 in test [13] was 1.7 µM (inactive); in test [15] it was 0.929 µM (active); in test [16], 1.36 µM (inactive); in test [17] it was 1.75 µM (inactive); in test [18], 1.72 µM (inactive); in test [19], 1.65 µM (inactive).
As to `CCOc1ccc(/N=N/C2C(=O)N(C(=O)CC(=O)Nc3ccc(Cl)cc3)N=C2C)cc1` (configuration not stated), the GI50 was > 100 µM (inactive) in test [1]; > 100 µM (inactive) in test [2]; > 100 µM (inactive) in test [3]; > 100 µM (inactive) in test [4]; 64.1 µM (inactive) in test [5]; > 100 µM (inactive) in test [6]. Further, the GI50 in [7], in test [8], in test [9], in test [11], in test [12] and in [13] was > 100 µM (inactive) each time. Moreover, the GI50 in test [14] was > 100 µM (inactive); in test [15], > 100 µM (inactive); in test [16] it was 18.4 µM (inactive); in test [17], > 100 µM (inactive); in [18], > 100 µM (inactive); in test [19], > 100 µM (inactive).
With `COC(=O)N1N=C(c2ccccc2)C1c1ccccc1` (configuration not stated), the GI50 was 31 µM (inactive) in test [1]; 23.2 µM (inactive) in test [2]; 24 µM (inactive) in test [3]; 27.2 µM (inactive) in [4]; 27.5 µM (inactive) in [5]; 42.4 µM (inactive) in test [6]. Besides, the GI50 in test [7] was 24.8 µM (inactive); in test [8], 32.1 µM (inactive); in [9] it was 31.9 µM (inactive); in test [10], 39.5 µM; in test [12], 71 µM (inactive); in [13], 42.7 µM (inactive). The GI50 was 21.8 µM (inactive) in test [14]; 25.8 µM (inactive) in [15]; 36 µM (inactive) in test [16]; 31.7 µM (inactive) in test [17]; 69.3 µM (inactive) in [18]; 35.2 µM (inactive) in test [19].
As to `CC(=O)NC1C(OCc2ccccc2)OC(CO)C(O)C1OCC(=O)NC(C(=O)NC(CCC(=O)NCCCCCC(=O)Nc1ccc2c(c1)CN1C(=O)c3ccccc3C1=N2)C(N)=O)C(C)C` (configuration not stated), the GI50 in test [1] was 41.4 µM (inactive); in test [2], 45.8 µM (inactive); in test [3] it was 24.9 µM (inactive); in test [4], > 100 µM (inactive); in [5], 26.4 µM (inactive); in test [6], > 100 µM (inactive). Besides, the GI50 is 35.3 µM (inactive) in test [7]; 35.6 µM (inactive) in [8]; > 100 µM (inactive) in test [9]; 52.2 µM in test [10]; 20.3 µM (inactive) in test [11]; 23.7 µM (inactive) in [12]. Besides, the GI50 in [13] is 18.8 µM (inactive); in test [15] it was 21.9 µM (inactive); in [16], 22 µM (inactive); in test [17], 21.8 µM (inactive); in test [18] it was 18.8 µM (inactive); in test [19] it was 16.4 µM (inactive).
Turning to `CC1(C#N)CC(C)(C)C(/C=C2/CC(C)(C)C(/C=C3/OC(=N)CC3(C)C)=N2)=N1` (configuration not stated), the GI50 in [1] is 29.5 µM (inactive); in test [2], 18.2 µM (inactive); in [3], 10.5 µM (inactive); in [4], 21.9 µM (inactive); in test [5], 22.9 µM (inactive); in test [6], 31.9 µM (inactive). The GI50 was 22.8 µM (inactive) in [7]; 32.2 µM (inactive) in [8]; 32.4 µM (inactive) in test [9]; 17.9 µM in test [10]; 23.8 µM (inactive) in test [11]; 19.2 µM (inactive) in test [12]. Moreover, the GI50 in [13] was 38.5 µM (inactive); in test [14] it was 40.6 µM (inactive); in [15], 20 µM (inactive); in test [16] it was 31 µM (inactive); in test [17], 15.2 µM (inactive); in [18] it was 20.4 µM (inactive). The GI50 in test [19] is 24.9 µM (inactive).
As for `CCN1CN(c2ccccc2)C2(CCN(CC(CC3OCCO3)c3ccc(F)cc3)CC2)C1=O` (configuration not stated), the GI50 in [1] was 5.24 µM (inactive); in test [2], 10.5 µM (inactive); in test [3] it was 3.63 µM (inactive); in test [4], 17.7 µM (inactive); in test [5] it was 8.81 µM (inactive); in test [6] it was 14.3 µM (inactive). For the same compound, the GI50 in [7] is 12.5 µM (inactive); in test [8], 9.93 µM (inactive); in [9] it was 3.65 µM (inactive); in test [10], 16.3 µM; in test [11] it was 4.23 µM (inactive); in test [12], 29.9 µM (inactive). The GI50 was 14.9 µM (inactive) in test [13]; 13.5 µM (inactive) in test [14]; 13.5 µM (inactive) in test [15]; 35.2 µM (inactive) in [16]; 16.2 µM (inactive) in [17]; 39.8 µM (inactive) in test [18]. Further, the GI50 in [19] was 8.36 µM (inactive).
On to `CCOC(=O)C1=NN(c2ccc([N+](=O)[O-])cc2)[C@@]2(C)C[C@]3(c4ccccc4)N(c4ccc([N+](=O)[O-])cc4)N=C(C(=O)OCC)N3c3ccccc3N12`, for which the GI50 in [1], in [2], in test [3], in test [4], in test [5] and in [6] was > 100 µM (inactive) throughout. In addition, the GI50 in test [7] is > 100 µM (inactive); in [8] it was > 100 µM (inactive); in test [9], > 100 µM (inactive); in [10], above 100 µM; in [11] it was > 100 µM (inactive); in test [12], > 100 µM (inactive). The GI50 in test [13], in [14], in test [15], in test [16], in [17] and in [18] was > 100 µM (inactive) each time. The GI50 in test [19] was > 100 µM (inactive).
In the case of `CC(=O)N(C(=O)CC(=O)N/N=C\c1ccc(Br)c(N(CCC#N)CCC#N)c1)c1ccc(Cl)cc1`, the GI50 in test [1] was 27.4 µM (inactive); in [2], 52.8 µM (inactive); in [3], 33.4 µM (inactive); in test [4], 35.4 µM (inactive); in test [5] it was 54.5 µM (inactive); in [6], 7 µM (inactive). Also, the GI50 in [7] is 86.1 µM (inactive); in test [8], 31 µM (inactive); in test [9], > 100 µM (inactive); in test [10] it was 14 µM; in [11], 44.7 µM (inactive); in test [12], 52.5 µM (inactive). Also, the GI50 in test [13] is 46.3 µM (inactive); in test [14], 36.1 µM (inactive); in [16] it was 54.2 µM (inactive); in [17] it was > 100 µM (inactive); in [18] it was 49.7 µM (inactive); in test [19] it was 45.9 µM (inactive).
As for `O[C@@]1(c2cccs2)c2cccc(Cl)c2[C@](O)(c2cccs2)c2cccc(Cl)c21`, the GI50 is 14.9 µM (inactive) in test [1]; 22.6 µM (inactive) in [2]; 12.6 µM (inactive) in test [3]; 16.6 µM (inactive) in test [4]; 55.7 µM (inactive) in [5]; 17.9 µM (inactive) in test [6]. The GI50 was 18.1 µM (inactive) in test [7]; 17.6 µM (inactive) in test [8]; 33.3 µM (inactive) in [9]; 21.2 µM in test [10]; 26.1 µM (inactive) in test [11]; 12.8 µM (inactive) in [12]. The GI50 was 16.8 µM (inactive) in test [13]; 22.1 µM (inactive) in [14]; 18.2 µM (inactive) in test [15]; > 100 µM (inactive) in test [16]; 16.3 µM (inactive) in test [17]; 22.6 µM (inactive) in [18]. For the same compound, the GI50 in [19] was 16.4 µM (inactive).

For the origin of these results see ChEMBL document CHEMBL1201862, “PubChem BioAssay data set” (2004).
